In patent US20020004218A1, “Methods for identifying compounds useful for inhibiting geranylgeranyl diphosphate synthase” (priority 2000, published 2002):

Tests used:
[1] = molecular target: T1, rat liver squalene synthase (Rattus norvegicus, UniProt Q02769); details: cited from earlier work
T1 construct: host or cells: rat liver
T1 sequence (Q02769 1-416): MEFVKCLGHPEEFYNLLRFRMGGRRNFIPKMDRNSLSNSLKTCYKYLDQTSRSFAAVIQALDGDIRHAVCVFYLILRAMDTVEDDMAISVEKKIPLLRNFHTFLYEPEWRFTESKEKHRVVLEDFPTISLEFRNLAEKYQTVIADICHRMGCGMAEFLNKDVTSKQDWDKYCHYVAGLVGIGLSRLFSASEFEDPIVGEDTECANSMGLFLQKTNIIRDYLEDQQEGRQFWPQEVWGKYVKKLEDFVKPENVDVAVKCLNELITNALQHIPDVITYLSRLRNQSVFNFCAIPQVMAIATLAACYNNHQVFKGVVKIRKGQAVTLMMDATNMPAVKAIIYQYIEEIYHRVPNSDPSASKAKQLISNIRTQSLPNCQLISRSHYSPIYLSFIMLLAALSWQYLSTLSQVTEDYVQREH

[2] = test system: sterol synthesis; details: incorporation of 14C-MVA into sterol, rat liver cell-free system; read-out: IC50, block of sterol synthesis; cited from earlier work
[3] = test system: osteoclasts; details: osteoclasts in culture; cited from earlier work
[4] = test system: geranylgeranyl diphosphate synthase
From the text: The present invention relates to a method for identifying inhibitors of geranylgeranyl diphosphate synthase comprising:
a). contacting a putative geranylgeranyl diphosphate synthase inhibitor with a geranylgeranyl diphosphate synthase assay solution, and
b). determining, i.e. comparing, the geranylgeranyl diphosphate synthase activity of said assay solution with a geranylgeranyl diphosphate synthase assay solution not contacted with said putative inhibitor, in order to determine the amount of inhibition.
In these methods the geranylgeranyl diphosphatesynthase assay solution is typically an aqueous solution. The inhibition effect is measured with respect to the catalysis of an appropriate reaction that one of ordinary skill in the art can select. Reaction times, conditions, quatitation methods, and other variables are chosen for convenience to obtain a readily quantitated system for measuring the inhibition of the geranylgeranyl diphosphate synthase.
Additionally, in these methods of identifying inhibitors of geranylgeranyl diphosphate synthase, the enzyme can be used in a crude, unpurified state, from various tissues sources, e.g., liver. Alternatively, the enzyme can be used in a partially purified state, a purified state, or as an expressed form of the enzyme, e.g., the expressed human enzyme.

SMILES | inhibition of squalene synthase [1] | IC50 [2] [nM] | bone resorption [3] | osteoclast formation [3] | inhibition of geranylgeranyl diphosphate synthase [4]
O=P(O)(O)C(O)(CCN1CCCC1)P(=O)(O)O [EB 1053, 1-hydroxy-3-(1-pyrrolidinyl)-propylidene-1,1-bisphosphonic acid] | potent, nanomolar inhibitors | – | – | – | –
O=P(O)(O)C(NC1CCCCCC1)P(=O)(O)O [YM 175, Cycloheptylaminomethylene-1,1-bisphosphonic acid] | potent, nanomolar inhibitors | – | – | – | –
NCCCC(O)(P(=O)(O)O)P(=O)(O)O [alendronate, 4-amino-1-hydroxybutylidene-1,1-bisphosphonic acid monosodium trihydrate] | comparatively little effect | 168 | inhibited | inhibited | –
CC[C@H](C)C(=O)O[C@H]1C[C@@H](C)C=C2C=C[C@H](C)[C@H](CC[C@@H]3C[C@@H](O)CC(=O)O3)[C@H]21 [lovastatin] | – | – | inhibited | inhibited | –
NCCC(O)(P(=O)(O)O)P(=O)(O)O [pamidronate, 3-amino-1-hydroxypropylidene-1,1-bisphosphonic acid] | comparatively little effect | 420 | – | – | –
O=P(O)(O)C(O)(Cc1cccnc1)P(=O)(O)O [risedronate, 1-hydroxy-2-(3-pyridinyl)-ethylidene-1,1-bisphosphonic acid] | – | – | – | – | specific nanomolar inhibitors
